Consider 1 molecule from publication PMC12406652 (Antimicrobial Agents and Chemotherapy, 2025).

This data set is described as follows: Drug-drug interaction, single dose CTB 400 mg + LED-E 500 mg, cross-over (VNRX-7145-102 Part 1). As to conditions: human, plasma, oral.

A word on the AUC(0-inf): it is total exposure, with the tail of the curve extrapolated. Broadly, the Cmax is the peak of the concentration-time curve. Consider `CCC(=O)N[C@H]1Cc2cccc(C(=O)OCOC(=O)C(CC)CC)c2OB1O` [Ledaborbactam etzadroxil], for which the AUC(0-inf) was 1.07 µg·h/mL and the highest concentration (Cmax) turned out to be 0.787 µg/mL. Under “500 mg”, the AUC(0-inf) amounted to 1.14 µg·h/mL and the Cmax came to 1.04 µg/mL.
